Consider 7 compounds from ChEMBL document CHEMBL1148892, “Evaluation of in vitro aldose redutase inhibitory activity of 5-arylidene-2,4-thiazolidinediones” (Bioorg Med Chem Lett, 2007).

For orientation: inhibition means the share of the control response that was lost under treatment. Low values mean a weak effect, high ones a strong effect. By IC50 is commonly meant the concentration that gives 50% inhibition. A high value points to a need for much substance.

Molecules are shown by their SMILES.

The target of the first assay is Aldo-keto reductase family 1 member B1 (Bos taurus) (UniProt P16116). The assay is described as follows: Inhibition of bovine aldose reductase at 12.5 uM.
Consider `COc1ccc(/C=C2\SC(=O)NC2=O)cc1O`, for which the inhibition stood at 33%.

For a further assay, the target named is Aldo-keto reductase family 1 member B1 (Bos taurus, UniProt P16116). The assay is described as follows: Inhibition of bovine aldose reductase.
Consider `COc1cc(/C=C2\SC(=O)NC2=O)ccc1O`, for which the IC50 was 11800 nM.
`O=C(O)COc1cccc(/C=C2\SC(=O)N(CC(=O)O)C2=O)c1` gave an IC50 of 230 nM.
The same measure, in the same setting: the result for `O=C(O)COc1ccc(/C=C2\SC(=O)N(CC(=O)O)C2=O)cc1` reads 600 nM; that for `COc1ccc(/C=C2\SC(=O)N(CC(=O)O)C2=O)cc1O`, 560 nM; that for `COc1cc(/C=C2\SC(=O)N(CC(=O)O)C2=O)ccc1O`, 700 nM.
The same measure, in the same setting: the result for `COc1cc(/C=C2\SC(=O)N(CC(=O)O)C2=O)ccc1OCC(=O)O` reads 260 nM.
